# Test results: PubChem BioAssay (NCI)
#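 Assay format: 96-well plates, 48-hour exposure. GI50 marks 50% less growth. TGI marks complete inhibition of growth.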
# Columns and labels:
# Test in all cases: growth of human tumour cells (NCI), 48 h
# [1] = tested on: 786-0 renal
# [2] = tested on: A498 renal
# [3] = tested on: ACHN renal
# [4] = tested on: CAKI-1 renal
# [5] = tested on: HCC-2998 colon
# [6] = tested on: HOP-62 NSCLC
# [7] = tested on: HS 578T breast
# [8] = tested on: KM12 colon
# [9] = tested on: NCI-H522 lung
# [10] = tested on: OVCAR-3 ovarian
# [11] = tested on: SF-268 CNS
# [12] = tested on: SF-539 CNS
# [13] = tested on: SN12C renal
# [14] = tested on: U251 CNS
# [15] = tested on: UACC-257 melanoma
# [16] = tested on: UO-31 renal
# [17] = tested on: T-47D breast
SMILES,TGI [1] [µM],TGI [2] [µM],TGI [3] [µM],TGI [4] [µM],TGI [5] [µM],TGI [6] [µM],TGI [7] [µM],TGI [8] [µM],TGI [9] [µM],TGI [10] [µM],TGI [11] [µM],TGI [12] [µM],TGI [13] [µM],TGI [14] [µM],TGI [15] [µM],TGI [16] [µM],TGI [17] [µM],GI50 [10] [µM],GI50 [11] [µM]
O=C(c1cccc(C(=O)c2ccc3c4c(cccc24)C(=O)N(c2ccccc2)C3=O)c1)c1ccc2c3c(cccc13)C(=O)N(c1ccccc1)C2=O,> 100,69.5,> 100,> 100,> 100,> 100,> 100,> 100,> 100,> 100,> 100,> 100,> 100,> 100,> 100,> 100,,,
O=C=NCCCCCCN1C(=O)N2C(c3ccccc3)N(CCCCCCN=C=O)C(=O)N2C1c1ccccc1 (stereo unspecified),> 100,> 100,> 100,> 100,> 100,> 100,,> 100,,> 100,> 100,> 100,> 100,> 100,> 100,> 100,,,
COc1cc(/C=C2/C(=O)N(C(=O)c3ccc(Cl)cc3)N=C2C)cc(OC)c1OC,> 100,> 100,> 100,> 100,> 100,,,> 100,> 100,> 100,> 100,> 100,> 100,> 100,> 100,> 100,,,
[N-]=[N+]=NC(CBr)c1cn([C@H]2C[C@H](O)[C@@H](CO)O2)c(=O)[nH]c1=O (stereo partly specified),> 100,,> 100,> 100,> 100,> 100,,> 100,> 100,> 100,,> 100,> 100,> 100,,> 100,,,
Cn1c2cc(O)cc(O)c2c(=O)c2c([N+](=O)[O-])cccc21,> 100,> 100,> 100,> 100,> 100,> 100,,> 100,> 100,> 100,> 100,> 100,> 100,> 100,> 100,> 100,,,
COc1cc(O)c2c(=O)cc(C3(O)C=CC(=O)C=C3)oc2c1,0.876,11.1,0.22,,1.12,0.486,8.38,0.447,0.113,,1.72,,,0.0808,1.05,0.993,,,
COC(=O)c1ccc(Cc2ccc(C(=O)OC)o2)o1,> 378,,> 378,> 378,> 378,> 378,,> 378,> 378,> 378,> 378,> 378,> 378,> 378,> 378,,,,
Cc1ccc(S(=O)(=O)NC(=O)Nc2ccc(S(N)(=O)=O)cc2S(N)(=O)=O)cc1,> 100,,,> 100,,> 100,> 100,> 100,> 100,> 100,> 100,,> 100,> 100,> 100,> 100,,,
COC(=O)[C@@]12OC[C@]34C([C@@H](O)C1O)[C@@]1(C)CC(=O)C(OC(=O)/C=C(/c5ccccc5)C(F)(F)F)=C(C)C1C[C@H]3OC(=O)[C@H](O)[C@H]42 (stereo partly specified),> 50,2.26,> 50,> 50,22.3,46.1,,> 50,24.5,,> 50,13,> 50,> 50,> 50,> 50,,,
C=CCN(C)CN(C)c1nc(N(C)C)nc(N(C)C)n1,> 100,> 100,> 100,> 100,> 100,> 100,,> 100,51.5,> 100,> 100,> 100,> 100,> 100,> 100,> 100,,,
N#CCCN(CCN(C(=O)Nc1ccccc1)c1ccccc1)C(=O)Nc1ccccc1,> 100,> 100,> 100,> 63.1,> 100,> 100,,> 100,> 100,> 100,> 100,> 100,> 100,> 100,> 100,> 100,> 100,,
Cn1ncnc1CCc1ccccc1,> 100,> 100,> 100,> 100,,> 100,,> 100,> 100,> 100,> 100,> 100,> 100,> 100,> 100,> 100,,,
CC(C)C(/C=C/c1ccc(Br)cc1)=N\NC(N)=O,> 100,,> 100,> 100,25.7,> 100,,> 100,> 100,,> 100,> 100,> 100,> 100,> 100,66.6,,,
CCOC(=O)c1ccc(-n2c(SCC)nc3sc(C)c(C)c3c2=O)cc1,> 100,> 100,> 100,> 100,> 100,> 100,,> 100,> 100,> 100,> 100,> 100,> 100,> 100,> 100,> 100,,,
C=C(Cl)C(=C)CCC(Cl)C(C)C (stereo unspecified),> 100,> 100,> 100,> 100,> 100,> 100,> 100,> 100,> 100,> 100,> 100,> 100,> 100,> 100,> 100,> 100,,,
Cc1ccc(O)c(C(=O)CCCC(=O)c2cc(C)ccc2O)c1,> 100,> 100,> 100,> 100,> 100,> 100,,> 100,> 100,,> 100,> 100,> 100,> 100,> 100,> 100,,,

SMILES,TGI [1] [µM],TGI [2] [µM],TGI [3] [µM],TGI [4] [µM],TGI [5] [µM],TGI [6] [µM],TGI [7] [µM],TGI [8] [µM],TGI [9] [µM],TGI [10] [µM],TGI [11] [µM],TGI [12] [µM],TGI [13] [µM],TGI [14] [µM],TGI [15] [µM],TGI [16] [µM],TGI [17] [µM],GI50 [10] [µM],GI50 [11] [µM]
COc1ccc2c(c1)CCC1=CC3(CCC12C)SCCS3 (stereo unspecified),> 10,,> 10,> 10,> 10,> 10,,> 10,> 10,7.71,> 10,,> 10,> 10,> 10,,> 10,,
CSc1nc2[nH]c(=O)c(C)nc2c(=O)[nH]1,> 100,> 100,> 100,> 100,> 100,> 100,,> 100,> 100,> 100,> 100,,> 100,> 100,> 100,> 100,,,
COC(=O)C(Cc1nc2ccc(Cl)cc2[nH]c1=O)/C(=N/NC(N)=O)C(=O)Nc1ccc(Cl)cc1 (stereo unspecified),> 100,> 100,> 100,> 100,> 100,> 100,,> 100,> 100,> 100,> 100,> 100,> 100,> 100,> 100,> 100,,,
COc1ccc([C@@]23OC[C@@H]4[C@@H](OC[C@@H]42)c2cc(OC)c(OC)cc23)cc1OC,> 100,> 100,> 100,> 100,> 100,> 100,,> 100,> 100,> 100,,> 100,,> 100,,> 100,> 100,,
COc1cc([C@@H]2c3cc4c(cc3[C@@H](NC(=O)c3cccc(F)c3)C3COC(=O)[C@@H]32)OCO4)cc(OC)c1O (stereo partly specified),2.26,4.91,1.85,22.5,11.3,1.94,,7.2,3.97,17.4,> 100,1.7,2.73,1.94,58.1,11.2,,,
CC(=O)NNc1nc(C)c(C(/C=C/c2ccc(Cl)cc2)=N/NC(=O)C[N+](C)(C)C)s1,> 100,> 100,> 100,> 100,> 100,,,> 100,> 100,> 100,> 100,> 100,,,> 100,> 100,,,
C=C1CN(Cc2ccccc2)[C@@H]2CCCCC[C@H](C#N)[C@H]12,> 100,> 100,> 100,> 100,> 100,> 100,,> 100,> 100,> 100,> 100,> 100,> 100,> 100,> 100,> 100,> 100,,
Cc1cc(OCC(=O)N/N=C/C(Br)=C/c2ccccc2)nc(SCC(=O)N/N=C/C(Br)=C/c2ccccc2)n1,> 100,> 100,> 100,> 100,82.9,> 100,> 100,> 100,> 100,> 100,> 100,,> 100,> 100,> 100,> 100,,,
COc1ccc(CNc2nc3c(NC(C)=O)cc(C(F)(F)F)cc3nc2-c2ccccc2)cc1OC,> 100,> 100,,> 100,> 100,> 100,,> 100,23.5,> 100,> 100,> 100,> 100,> 100,> 100,> 100,,,
O=C(O)CCCOc1cc(-c2ccccc2F)nc2cc3c(cc12)OCO3,> 100,,,> 100,> 100,> 100,,> 100,,6.74,> 100,63.2,> 100,> 100,,,> 100,2.35,16.3
Cc1ccc(S(=O)(=O)Oc2nc3ccccc3nc2N(S(=O)(=O)c2ccc(C)cc2)S(=O)(=O)c2ccc(C)cc2)cc1,> 100,> 100,> 100,> 100,> 100,,> 100,> 100,> 100,> 100,> 100,> 100,> 100,> 100,> 100,> 100,,,
COc1cc2c(cc1OC)C(=O)C(C1=C(SC(=N)N)C(=O)c3cc(OC)c(OC)cc31)C2 (stereo unspecified),> 100,,> 100,> 100,> 100,> 100,,> 100,> 100,> 100,> 100,> 100,> 100,> 100,> 100,> 100,,,
O=c1cc(-c2ccc(Cl)cc2)oc2cc(OCCCOc3ccc4c(=O)cc(-c5ccc(Cl)cc5)oc4c3)ccc12,> 100,,> 100,> 100,> 100,> 100,,> 100,> 100,> 100,> 100,> 100,> 100,> 100,> 100,,,,
O=C1CC(=O)N(CCc2ccccc2)S(=O)(=O)N1CCc1ccccc1,30.8,34.2,> 100,51.4,> 100,> 100,,39.5,37.5,36.8,80.8,43.5,> 100,30.5,,40.5,,,
O=C(c1ccc(Br)cc1)n1c2ccc(Br)cc2c2nc3ccccc3nc21,> 100,,> 100,> 100,> 100,> 100,,> 100,> 100,> 100,> 100,> 100,> 100,> 100,> 100,> 100,> 100,,
